Assay results taken from patent US20250179088A9 (ZYMEWORKS BC INC., priority 2020, published 2025).

Experiments:
PBMCs = assay: PBMC assay, IL-6 release (HTRF); assay type: cell-based; conditions: PBMCs from healthy donors, overnight, IL-6 induction by HTRF, average of quadruplicate
Protocol: Whole peripheral blood was obtained from healthy donors. PBMCs were isolated from peripheral blood by density gradient centrifugation. […] The plasma layer containing PBMCs was poured into a new tube and washed twice. Isolated PBMCs were either used fresh or thawed from previously frozen. 1×10^5 PBMCs were cultured with titrating concentrations of compounds of Formula I overnight followed by assaying for cytokines by homogeneous time resolved fluorescence (HTRF).

TLR7 = molecular target: T1, TLR7 (Homo sapiens, UniProt Q9NYK1); assay: Reporter gene assay, HEK-Blue TLR7 reporter cells (SEAP)
T1 sequence (Q9NYK1 27-1049): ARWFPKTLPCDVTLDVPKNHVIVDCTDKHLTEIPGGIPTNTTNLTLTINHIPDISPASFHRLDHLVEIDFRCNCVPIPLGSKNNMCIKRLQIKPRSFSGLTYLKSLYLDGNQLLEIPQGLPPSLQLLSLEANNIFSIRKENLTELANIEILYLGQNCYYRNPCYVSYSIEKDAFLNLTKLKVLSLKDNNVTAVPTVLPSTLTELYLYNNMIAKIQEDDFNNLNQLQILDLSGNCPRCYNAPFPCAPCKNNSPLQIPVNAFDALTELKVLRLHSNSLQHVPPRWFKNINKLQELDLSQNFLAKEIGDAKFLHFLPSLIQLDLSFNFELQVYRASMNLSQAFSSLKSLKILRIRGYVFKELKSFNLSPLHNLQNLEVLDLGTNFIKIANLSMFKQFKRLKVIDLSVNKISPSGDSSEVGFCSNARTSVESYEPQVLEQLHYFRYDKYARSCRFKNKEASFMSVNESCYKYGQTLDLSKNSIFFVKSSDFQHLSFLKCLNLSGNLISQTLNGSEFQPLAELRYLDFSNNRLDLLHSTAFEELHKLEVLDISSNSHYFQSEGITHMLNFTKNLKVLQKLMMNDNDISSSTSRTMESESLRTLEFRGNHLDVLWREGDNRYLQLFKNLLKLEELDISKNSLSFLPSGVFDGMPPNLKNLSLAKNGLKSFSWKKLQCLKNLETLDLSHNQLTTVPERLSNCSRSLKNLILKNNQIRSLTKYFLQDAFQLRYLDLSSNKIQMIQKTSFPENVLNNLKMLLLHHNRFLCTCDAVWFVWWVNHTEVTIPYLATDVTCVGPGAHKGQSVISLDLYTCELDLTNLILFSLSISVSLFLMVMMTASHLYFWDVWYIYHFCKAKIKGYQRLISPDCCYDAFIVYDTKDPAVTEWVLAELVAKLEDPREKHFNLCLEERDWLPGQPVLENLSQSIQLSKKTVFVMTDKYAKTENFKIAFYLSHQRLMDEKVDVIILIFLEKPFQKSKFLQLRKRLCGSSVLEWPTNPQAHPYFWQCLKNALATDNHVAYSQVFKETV
Protocol: (§1) 3×10^4 HEK-Blue™ TLR7 or 3×10^4 TLR8 reporter cells (InvivoGen, San Diego, CA) were treated with titrated (4-fold) amounts of test compound. […] Cells were incubated overnight at 37° C. and 5% CO2, then absorbance (620 and 655 nm) was read on a Synergy™ H1 microplate reader.

TLR8 = molecular target: T2, TLR8 (Homo sapiens, UniProt Q9NR97); assay: Reporter gene assay, HEK-Blue TLR8 reporter cells (SEAP)
T2 sequence (Q9NR97 27-1041): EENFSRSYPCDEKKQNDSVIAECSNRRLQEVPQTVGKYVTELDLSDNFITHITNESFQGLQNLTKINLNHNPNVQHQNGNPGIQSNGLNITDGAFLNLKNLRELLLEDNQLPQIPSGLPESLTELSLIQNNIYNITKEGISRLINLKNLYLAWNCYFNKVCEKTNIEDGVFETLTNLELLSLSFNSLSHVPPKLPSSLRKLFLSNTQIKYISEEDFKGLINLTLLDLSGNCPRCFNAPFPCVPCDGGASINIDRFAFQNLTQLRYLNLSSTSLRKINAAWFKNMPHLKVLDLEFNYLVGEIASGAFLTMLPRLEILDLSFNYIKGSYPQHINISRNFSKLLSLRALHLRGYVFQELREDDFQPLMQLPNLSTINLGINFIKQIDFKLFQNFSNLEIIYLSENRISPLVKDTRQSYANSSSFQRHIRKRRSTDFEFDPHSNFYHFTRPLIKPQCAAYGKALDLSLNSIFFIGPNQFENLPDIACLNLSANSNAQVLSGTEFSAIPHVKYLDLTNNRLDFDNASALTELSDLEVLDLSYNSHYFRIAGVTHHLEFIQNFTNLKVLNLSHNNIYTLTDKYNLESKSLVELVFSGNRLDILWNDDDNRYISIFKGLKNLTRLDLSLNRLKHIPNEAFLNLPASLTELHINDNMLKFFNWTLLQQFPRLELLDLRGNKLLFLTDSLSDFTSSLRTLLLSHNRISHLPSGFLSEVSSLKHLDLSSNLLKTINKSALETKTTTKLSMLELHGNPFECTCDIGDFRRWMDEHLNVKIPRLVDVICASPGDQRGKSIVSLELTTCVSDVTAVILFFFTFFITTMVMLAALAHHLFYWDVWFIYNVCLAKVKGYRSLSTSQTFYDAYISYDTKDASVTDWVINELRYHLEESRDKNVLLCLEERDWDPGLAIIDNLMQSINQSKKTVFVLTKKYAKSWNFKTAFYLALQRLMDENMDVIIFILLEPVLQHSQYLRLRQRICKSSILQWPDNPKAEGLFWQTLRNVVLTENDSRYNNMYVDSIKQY
Protocol: as §1

| EC50 (TLR7) [nM] | EC50 (TLR8) [nM] | SMILES | EC50 (PBMCs) [nM] |
| --- | --- | --- | --- |
| 3.8 | > 1000 | CCCCc1nc2c(N)nc3ccsc3c2n1Cc1ccc(CN2CCCCC2)cc1 [Compound 151, 2-butyl-1-(4-(piperidin-1-ylmethyl)benzyl)-1H-imidazo[4,5-d]thieno[3,2-b]pyridin-4-amine] | 20 |
| 67 | > 1000 | CCCCc1nc2c(N)nc3ccsc3c2n1Cc1ccc(CN(CCN(CCCC)CCCC)CCN(CCCC)CCCC)cc1 [Compound 152, N^1-(4-((4-amino-2-butyl-1H-imidazo[4,5-d]thieno[3,2-b]pyridin-1-yl)methyl)benzyl)-N^2,N^2-dibutyl-N^1-(2-(dibutylamino)ethyl)ethane-1,2-diamine] | 59 |
| 85 | > 1000 | CCCCc1nc2c(N)nc3ccsc3c2n1Cc1ccc(CN2CCN(C(=O)OC(C)(C)C)CC2)cc1 [Compound 153, tert-butyl 4-(4-((4-amino-2-butyl-1H-imidazo[4,5-d]thieno[3,2-b]pyridin-1-yl)methyl)benzyl)piperazine-1-carboxylate] | 420 |
| 444 | > 1000 | CCCCc1nc2c(N)nc3ccsc3c2n1Cc1ccc(CNCc2ccc(CNC(=O)OC(C)(C)C)cc2)cc1 [Compound 155, tert-butyl (4-(((4-((4-amino-2-butyl-1H-imidazo[4,5-d]thieno[3,2-b]pyridin-1-yl)methyl)benzyl)amino)methyl)benzyl)carbamate] | 110 |
| 8.7 | > 1000 | CCCCc1nc2c(N)nc3ccsc3c2n1Cc1ccc(CNCCNC(=O)OC(C)(C)C)cc1 [Compound 160, tert-butyl (2-((4-((4-amino-2-butyl-1H-imidazo[4,5-d]thieno[3,2-b]pyridin-1-yl)methyl)benzyl)amino)ethyl)carbamate] | 32 |
| > 1000 | > 1000 | CCCCc1nc2c(N)nc3ccsc3c2n1Cc1ccc(C=O)cc1 [Compound 164, 4-((4-amino-2-butyl-1H-imidazo[4,5-d]thieno[3,2-b]pyridin-1-yl)methyl)benzaldehyde] | > 1000 |
| 15 | > 1000 | CCCCc1nc2c(N)nc3ccsc3c2n1Cc1ccc(CN2CCN(CCNC(=O)OC(C)(C)C)CC2)cc1 [Compound 165, tert-butyl (2-(4-(4-((4-amino-2-butyl-1H-imidazo[4,5-d]thieno[3,2-b]pyridin-1-yl)methyl)benzyl)piperazin-1-yl)ethyl)carbamate] | 65 |
| 27 | > 1000 | CCCCc1nc2c(N)nc3ccsc3c2n1CCCCCO [Compound 172, 5-(4-amino-2-butyl-1H-imidazo[4,5-d]thieno[3,2-b]pyridin-1-yl)pentan-1-ol] | 580 |
| > 1000 | > 1000 | CCCCc1nc2c(N)nc3ccsc3c2n1CCCCCN=[N+]=[N-] [Compound 173, 1-(5-azidopentyl)-2-butyl-1H-imidazo[4,5-d]thieno[3,2-b]pyridin-4-amine] | > 1000 |
| 21 | > 1000 | CCCCc1nc2c(N)nc3ccsc3c2n1CCCCCN1CCC(c2ccncc2)CC1 [Compound 174, 2-butyl-1-(5-(4-(pyridin-4-yl)piperidin-1-yl)pentyl)-1H-imidazo[4,5-d]thieno[3,2-b]pyridin-4-amine] | 78 |
| 12 | 380 | CCCCc1nc2c(N)nc3ccsc3c2n1CCCCCN(CC)CC [Compound 175, 2-butyl-1-(5-(diethylamino)pentyl)-1H-imidazo[4,5-d]thieno[3,2-b]pyridin-4-amine] | 99 |
| 33 | > 1000 | CCCCc1nc2c(N)nc3ccsc3c2n1CCCCCN1CCN(CCN2CCOCC2)CC1 [Compound 176, 2-butyl-1-(5-(4-(2-morpholinoethyl)piperazin-1-yl)pentyl)-1H-imidazo[4,5-d]thieno[3,2-b]pyridin-4-amine] | 58 |
| 24 | 570 | CCCCc1nc2c(N)nc3ccsc3c2n1CCCCCNCC(C)(C)N1CCOCC1 [Compound 177, 2-butyl-1-(5-((2-methyl-2-morpholinopropyl)amino)pentyl)-1H-imidazo[4,5-d]thieno [3,2-b]pyridin-4-amine] | 270 |
| 37 | > 1000 | CCCCc1nc2c(N)nc3ccsc3c2n1CCCCCNCCCCCO [Compound 178, 5-((5-(4-amino-2-butyl-1H-imidazo[4,5-d]thieno[3,2-b]pyridin-1-yl)pentyl)amino) pentan-1-ol] | > 1000 |
| 12 | 260 | CCCCc1nc2c(N)nc3ccsc3c2n1CCCCCNCc1ccc(CO)cc1 [Compound 179, (4-(((5-(4-amino-2-butyl-1H-imidazo[4,5-d]thieno[3,2-b]pyridin-1-yl)pentyl)amino)methyl)phenyl)methanol] | 76 |
| 83 | > 1000 | CCCCc1nc2c(N)nc3ccsc3c2n1CCCCCNCC(C)(C)O [Compound 180, 1-((5-(4-amino-2-butyl-1H-imidazo[4,5-d]thieno[3,2-b]pyridin-1-yl)pentyl)amino)-2-methylpropan-2-ol] | 610 |
| 24 | > 1000 | CCCCc1nc2c(N)nc3ccsc3c2n1CCCCCN1CCNCC1 [Compound 182] | 160 |
| 446 | > 1000 | CCCCc1nc2c(N)nc3ccsc3c2n1Cc1ccc(CN(CC(=O)O)CC(=O)O)cc1 [Compound 299, 2,2′-((4-((4-amino-2-butyl-1H-imidazo[4,5-d]thieno[3,2-b]pyridin-1-yl)methyl)benzyl)azanediyl)diacetic acid] | – |
| > 1000 | > 1000 | CCCCc1nc2c(N)nc3ccsc3c2n1Cc1ccc(CN2CCC[C@H]2C(=O)O)cc1 [Compound 300, (4-((4-amino-2-butyl-1H-imidazo[4,5-d]thieno[3,2-b]pyridin-1-yl)methyl)benzyl)-L-proline] | – |
| 348 | > 1000 | CCCCc1nc2c(N)nc3ccsc3c2n1Cc1ccc(CNCCC(=O)N[C@@H](Cc2cnc[nH]2)C(=O)O)cc1 [Compound 301, (3-((4-((4-amino-2-butyl-1H-imidazo[4,5-d]thieno[3,2-b]pyridin-1-yl)methyl)benzyl)amino)propanoyl)-L-histidine] | – |
| 108 | > 1000 | CCCCc1nc2c(N)nc3ccsc3c2n1Cc1ccc(CNCCCC[C@H](N)C(=O)O)cc1 [Compound 305, N^6-(4-((4-amino-2-butyl-1H-imidazo[4,5-d]thieno[3,2-b]pyridin-1-yl)methyl)benzyl)-L-lysine] | – |
